# Measurements published in patent EP4635500A1, “THERAPEUTIC AGENT FOR BACTERIAL INFECTION” (Sumitomo Pharma Co., Ltd., priority 2022, dated 2024).
# Where two headings read alike, the source gives them in different places.
# Columns and labels:
# [1] = test system: 53 CRE and CPE strains; test: MICrange, MIC50, MIC80, MIC90 for 53 bacterial isolates (Example 5, Table 5); format: cell-based
# [2] = test system: P. aeruginosa; test: MIC, broth microdilution, CDC/FDA Antibiotic Resistance Isolate Bank (Example 7, Tables 10, 15); format: cell-based; details: for MIC: Pseudomonas aeruginosa, read-out: MIC
# [3] = 26 metallo-carbapenemase-producing P. aeruginosa strains, β-lactamase inhibitor µg/mL in parentheses
# [4] = 96 strains of P. aeruginosa, β-lactamase inhibitor µg/mL in parentheses
smiles,measurement,setting,value
"CC(C)(O/N=C(\C(=O)N[C@@H]1C(=O)N2C(C(=O)[O-])=C(C[N+]3(CCNC(=O)c4ccc(O)c(O)c4Cl)CCCC3)CS[C@H]12)c1csc(N)n1)C(=O)O [Cefiderocol, cefiderocol]",MIC90,"[1]; 53 CRE and CPE strains, read-out: MIC90",4000 ng/mL
same,MIC90,[1]; 53 bacterial isolates,4000 ng/mL
same,MICrange,[1]; 53 bacterial isolates,≤0.06 to 8 µg/mL
same,MIC80,"[1]; 53 bacterial isolates, read-out: MIC80",2000 ng/mL
same,MIC against 26 metallo-carbapenemase-producing strains MIC50,[2]; [3],0.5 µg(mL)
same,MIC against 26 metallo-carbapenemase-producing strains MIC90,[2]; [3],2 µg(mL)
same,MIC against 26 metallo-carbapenemase-producing strains MICrange,[2]; [3],0.25 - 4 µg(mL)
same,MIC against 96 strains of P. aeruginosa MIC50,[2]; [4],0.5 µg(mL)
same,MIC against 96 strains of P. aeruginosa MIC90,[2]; [4],2 µg(mL)
same,MIC against 96 strains of P. aeruginosa MICrange,[2]; [4],≤0.06 - 4 µg(mL)
same,MIC,"[2]; P. aeruginosa KUB No. 579, AR Bank # 447",120 ng/mL
same,MIC,"[2]; P. aeruginosa KUB No. 5083, AR Bank # 250",4000 ng/mL
same,MIC,"[2]; P. aeruginosa KUB No. 5551, AR Bank # 54",500 ng/mL
same,MIC,"[2]; P. aeruginosa KUB No. 5561, AR Bank # 64",2000 ng/mL
same,MIC,"[2]; P. aeruginosa KUB No. 5587, AR Bank # 90",1000 ng/mL
same,MIC,"[2]; P. aeruginosa KUB No. 5589, AR Bank # 92",2000 ng/mL
same,MIC,"[2]; P. aeruginosa KUB No. 5591, AR Bank # 94",2000 ng/mL
same,MIC,"[2]; P. aeruginosa KUB No. 5592, AR Bank # 95",500 ng/mL
same,MIC,"[2]; P. aeruginosa KUB No. 5597, AR Bank # 100",500 ng/mL
same,MIC,"[2]; P. aeruginosa KUB No. 5600, AR Bank # 103",1000 ng/mL
same,MIC,"[2]; P. aeruginosa KUB No. 5602, AR Bank # 105",1000 ng/mL
same,MIC,"[2]; P. aeruginosa KUB No. 5605, AR Bank # 108",500 ng/mL
same,MIC,"[2]; P. aeruginosa KUB No. 5607, AR Bank # 110",250 ng/mL
same,MIC,"[2]; P. aeruginosa KUB No. 5608, AR Bank # 111",500 ng/mL
same,MIC,"[2]; P. aeruginosa KUB No. 5662, AR Bank # 229",120 ng/mL
same,MIC,"[2]; P. aeruginosa KUB No. 5663, AR Bank # 230",500 ng/mL
same,MIC,"[2]; P. aeruginosa KUB No. 5664, AR Bank # 231",2000 ng/mL
same,MIC,"[2]; P. aeruginosa KUB No. 5665, AR Bank # 232",120 ng/mL
same,MIC,"[2]; P. aeruginosa KUB No. 5666, AR Bank # 23",120 ng/mL
same,MIC,"[2]; P. aeruginosa KUB No. 5667, AR Bank # 234",250 ng/mL
same,MIC,"[2]; P. aeruginosa KUB No. 5668, AR Bank # 235",1000 ng/mL
same,MIC,"[2]; P. aeruginosa KUB No. 5669, AR Bank # 236",250 ng/mL
same,MIC,"[2]; P. aeruginosa KUB No. 5670, AR Bank # 237",250 ng/mL
same,MIC,"[2]; P. aeruginosa KUB No. 5671, AR Bank # 238",1000 ng/mL
same,MIC,"[2]; P. aeruginosa KUB No. 5672, AR Bank # 239",2000 ng/mL
same,MIC,"[2]; P. aeruginosa KUB No. 5673, AR Bank # 240",1000 ng/mL
same,MIC,"[2]; P. aeruginosa KUB No. 5674, AR Bank # 241",250 ng/mL
same,MIC,"[2]; P. aeruginosa KUB No. 5675, AR Bank # 242",500 ng/mL
same,MIC,"[2]; P. aeruginosa KUB No. 5676, AR Bank # 243",500 ng/mL
same,MIC,"[2]; P. aeruginosa KUB No. 5677, AR Bank # 244",250 ng/mL
same,MIC,"[2]; P. aeruginosa KUB No. 5678, AR Bank # 245",250 ng/mL
same,MIC,"[2]; P. aeruginosa KUB No. 5679, AR Bank # 246",4000 ng/mL
same,MIC,"[2]; P. aeruginosa KUB No. 5680, AR Bank # 247",120 ng/mL
same,MIC,"[2]; P. aeruginosa KUB No. 5681, AR Bank # 248",500 ng/mL
same,MIC,"[2]; P. aeruginosa KUB No. 5682, AR Bank # 249",500 ng/mL
same,MIC,"[2]; P. aeruginosa KUB No. 5684, AR Bank # 251",120 ng/mL
same,MIC,"[2]; P. aeruginosa KUB No. 5685, AR Bank # 252",2000 ng/mL
same,MIC,"[2]; P. aeruginosa KUB No. 5686, AR Bank # 253",120 ng/mL
same,MIC,"[2]; P. aeruginosa KUB No. 5687, AR Bank # 254",500 ng/mL
same,MIC,"[2]; P. aeruginosa KUB No. 5688, AR Bank # 255",250 ng/mL
same,MIC,"[2]; P. aeruginosa KUB No. 5689, AR Bank # 256",2000 ng/mL
same,MIC,"[2]; P. aeruginosa KUB No. 5690, AR Bank # 257",250 ng/mL
same,MIC,"[2]; P. aeruginosa KUB No. 5691, AR Bank # 258",250 ng/mL
same,MIC,"[2]; P. aeruginosa KUB No. 5692, AR Bank # 259",120 ng/mL
same,MIC,"[2]; P. aeruginosa KUB No. 5693, AR Bank # 260",250 ng/mL
same,MIC,"[2]; P. aeruginosa KUB No. 5694, AR Bank # 261",≤ 60 ng/mL
same,MIC,"[2]; P. aeruginosa KUB No. 5695, AR Bank # 262",120 ng/mL
same,MIC,"[2]; P. aeruginosa KUB No. 5696, AR Bank # 263",120 ng/mL
same,MIC,"[2]; P. aeruginosa KUB No. 5697, AR Bank # 264",250 ng/mL
same,MIC,"[2]; P. aeruginosa KUB No. 5698, AR Bank # 265",500 ng/mL
same,MIC,"[2]; P. aeruginosa KUB No. 5699, AR Bank # 266",500 ng/mL
same,MIC,"[2]; P. aeruginosa KUB No. 5700, AR Bank # 267",120 ng/mL
same,MIC,"[2]; P. aeruginosa KUB No. 5701, AR Bank # 268",250 ng/mL
same,MIC,"[2]; P. aeruginosa KUB No. 5702, AR Bank # 269",1000 ng/mL
same,MIC,"[2]; P. aeruginosa KUB No. 5703, AR Bank # 270",250 ng/mL
same,MIC,"[2]; P. aeruginosa KUB No. 5704, AR Bank # 271",250 ng/mL
same,MIC,"[2]; P. aeruginosa KUB No. 5705, AR Bank # 272",250 ng/mL
same,MIC,"[2]; P. aeruginosa KUB No. 5747, AR Bank # 351",250 ng/mL
same,MIC,"[2]; P. aeruginosa KUB No. 5748, AR Bank # 352",500 ng/mL
same,MIC,"[2]; P. aeruginosa KUB No. 5749, AR Bank # 353",1000 ng/mL
same,MIC,"[2]; P. aeruginosa KUB No. 5750, AR Bank # 354",500 ng/mL
same,MIC,"[2]; P. aeruginosa KUB No. 5751, AR Bank # 355",250 ng/mL
same,MIC,"[2]; P. aeruginosa KUB No. 5752, AR Bank # 356",1000 ng/mL
same,MIC,"[2]; P. aeruginosa KUB No. 5753, AR Bank # 357",4000 ng/mL
same,MIC,"[2]; P. aeruginosa KUB No. 5754, AR Bank # 358",500 ng/mL
same,MIC,"[2]; P. aeruginosa KUB No. 5755, AR Bank # 359",250 ng/mL
same,MIC,"[2]; P. aeruginosa KUB No. 5756, AR Bank # 360",250 ng/mL
same,MIC,"[2]; P. aeruginosa KUB No. 5785, AR Bank # 439",500 ng/mL
same,MIC,"[2]; P. aeruginosa KUB No. 5786, AR Bank # 440",250 ng/mL
same,MIC,"[2]; P. aeruginosa KUB No. 5787, AR Bank # 441",1000 ng/mL
same,MIC,"[2]; P. aeruginosa KUB No. 5788, AR Bank # 443",1000 ng/mL
same,MIC,"[2]; P. aeruginosa KUB No. 5789, AR Bank # 444",500 ng/mL
same,MIC,"[2]; P. aeruginosa KUB No. 5790, AR Bank # 445",500 ng/mL
same,MIC,"[2]; P. aeruginosa KUB No. 5793, AR Bank # 449",500 ng/mL
same,MIC,"[2]; P. aeruginosa KUB No. 5798, AR Bank # 455",250 ng/mL
same,MIC,"[2]; P. aeruginosa KUB No. 5799, AR Bank # 456",250 ng/mL
same,MIC,"[2]; P. aeruginosa KUB No. 5800, AR Bank # 457",250 ng/mL
same,MIC,"[2]; P. aeruginosa KUB No. 5801, AR Bank # 458",2000 ng/mL
same,MIC,"[2]; P. aeruginosa KUB No. 5802, AR Bank # 459",120 ng/mL
same,MIC,"[2]; P. aeruginosa KUB No. 5804, AR Bank # 862",500 ng/mL
same,MIC,"[2]; P. aeruginosa KUB No. 5805, AR Bank # 863",500 ng/mL
same,MIC,"[2]; P. aeruginosa KUB No. 5806, AR Bank # 864",120 ng/mL
same,MIC,"[2]; P. aeruginosa KUB No. 5813, AR Bank # 508",1 ng/mL
same,MIC,"[2]; P. aeruginosa KUB No. 5814, AR Bank # 509",0.5 ng/mL
same,MIC,"[2]; P. aeruginosa KUB No. 5815, AR Bank # 510",≤ 0.06 ng/mL
same,MIC,"[2]; P. aeruginosa KUB No. 5816, AR Bank # 511",0.25 ng/mL
same,MIC,"[2]; P. aeruginosa KUB No. 5817, AR Bank # 512",1 ng/mL
same,MIC,"[2]; P. aeruginosa KUB No. 5818, AR Bank # 513",0.25 ng/mL
same,MIC,"[2]; P. aeruginosa KUB No. 5819, AR Bank # 514",0.12 ng/mL
same,MIC,"[2]; P. aeruginosa KUB No. 5820, AR Bank # 515",1 ng/mL
same,MIC,"[2]; P. aeruginosa KUB No. 5821, AR Bank # 516",0.5 ng/mL
same,MIC,"[2]; P. aeruginosa KUB No. 5823, AR Bank # 518",0.25 ng/mL
same,MIC,"[2]; P. aeruginosa KUB No. 5831, AR Bank # 526",0.12 ng/mL
same,MIC,"[2]; P. aeruginosa KUB No. 5832, AR Bank # 527",0.25 ng/mL
same,MIC,"[2]; P. aeruginosa KUB No. 5833, AR Bank # 528",0.25 ng/mL
same,MIC,"[2]; P. aeruginosa KUB No. 5834, AR Bank # 529",≤ 0.06 ng/mL
